The values that follow come from BindingDB's records for patent US20240101552 (Shanghai Pharmaceuticals Holding Co., 2024).

The assay addresses T1, LanC-like protein 2 (Homo sapiens, UniProt Q9NS86).
T1 sequence (Q9NS86 whole entry): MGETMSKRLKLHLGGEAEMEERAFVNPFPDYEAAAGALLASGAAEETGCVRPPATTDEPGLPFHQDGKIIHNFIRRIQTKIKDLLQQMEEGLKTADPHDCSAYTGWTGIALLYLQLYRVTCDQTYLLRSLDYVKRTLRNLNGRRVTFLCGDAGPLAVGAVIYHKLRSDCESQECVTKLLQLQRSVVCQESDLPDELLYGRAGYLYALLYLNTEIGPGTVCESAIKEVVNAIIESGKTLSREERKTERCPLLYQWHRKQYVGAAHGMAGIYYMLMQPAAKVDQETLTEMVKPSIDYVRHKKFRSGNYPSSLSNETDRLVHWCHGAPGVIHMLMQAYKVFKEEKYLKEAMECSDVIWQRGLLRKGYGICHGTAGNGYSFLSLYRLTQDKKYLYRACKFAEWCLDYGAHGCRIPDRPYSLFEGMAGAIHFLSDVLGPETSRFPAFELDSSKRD
Briefly: Receptor Binding Assay. The procedure:
1. […] The kinetic parameters of small molecules BT-11 and L-1 to 60 (analytes) binding to LANCL2 (ligand) were determined using BIACORE S200. Data were generated in triplicate in a dose-dependent manner (5-8 titration points) and analyzed to determine binding models (Langmuir, conformational shifts, etc.), real-time association and dissociation constants, and equilibrium dissociation constants. SPR technology allows the validation of specific LANCL2-phytochemical interactions as well as an increased insight into the gold standard of binding mechanisms and rates. Experiments were performed on carboxymethyl polydextrose (CM5) sensor chips by amine-coupled covalent attachment of LANCL2. Data were analyzed with BIACORE S200T200 evaluation software (version 1), so as to determine affinity binding constants (KD) using a 1:1 binding model.
With `O=C(Nc1ccccc1NC(=O)c1cccc(-c2cn3ccccc3n2)c1)c1cccc(-c2cn3ccccc3n2)c1` [US20240101552, Compound L-1], the Kd was 4.46 µM.

In turn, `O=C(NC1C2CN(C(=O)c3cccc(-c4cn5ccccc5n4)c3)CC21)c1cccc(-c2nc3ccccc3[nH]2)n1` [US20240101552, Compound L-2] showed a Kd of 0.719 µM.

Take `O=C(c1cccc(-c2cn3ccccc3n2)c1)N1CCC2(CC1)CCN(C(=O)c1cccc(-c3nc4ccccc4[nH]3)n1)CC2` [US20240101552, Compound L-3]: the Kd turned out to be 6.92 µM.

In turn, `O=C(c1cccc(-c2cn3ccccc3n2)c1)N1CC2CC1CN2C(=O)c1cccc(-c2nc3ccccc3[nH]2)n1` [US20240101552, Compound L-4] displayed a Kd of 40 µM. Compared with the last molecule, the Kd is about 5.8-fold higher.

As to `O=C(NC1CCN(C(=O)c2cccc(-c3nc4ccccc4[nH]3)n2)CC1)c1cccc(-c2cn3ccccc3n2)c1` [US20240101552, Compound L-5], the Kd amounted to 17 µM.

For `O=C(c1cccc(-c2nc3ccccc3[nH]2)n1)N1CC2CN(C(=O)c3cccc(-c4nc5ccccc5[nH]4)n3)CC2C1` [US20240101552, Compound L-10], the Kd is 18.4 µM. The Kd values of the last two molecules are within 1.5-fold of each other.

In turn, `O=C(c1cccc(-c2nc3ccccc3[nH]2)n1)N1CCC2(CC1)CCN(C(=O)c1ccnc(N3CCOCC3)n1)CC2` [US20240101552, Compound L-15] yielded a Kd of 2.3 µM.

In turn, `O=C(c1cccc(-c2nc3ccccc3[nH]2)n1)N1CC2CN(C(=O)c3ccnc(N4CCOCC4)n3)CC2C1` [US20240101552, Compound L-16] came in with a Kd of 84.9 µM.

`O=C(c1cccc(-c2nc3ccccc3[nH]2)n1)N1CC2CN(C(=O)c3ccnc(Nc4ccccc4)n3)CC2C1` [US20240101552, Compound L-24] gave a Kd of 57.3 µM.

Consider `O=C(NC1C2CN(C(=O)c3cccc(-c4nc5ccccc5[nH]4)n3)CC21)c1ccnc(Nc2ccccn2)n1` [US20240101552, Compound L-25], for which binding was put at a Kd of 2.01 µM. Against the preceding molecule, the Kd is about 29-fold lower.

On to `O=C(c1cccc(-c2nc3ccccc3[nH]2)n1)N1CC2CN(C(=O)c3ccnc(Nc4ccccn4)n3)CC2C1` [US20240101552, Compound L-26], for which the affinity, expressed as Kd, was 65.8 µM.

On to `O=C(NC1CCN(C(=O)c2cccc(-c3nc4ccccc4[nH]3)n2)CC1)c1cccc([N+](=O)[O-])c1` [US20240101552, Compound L-38], for which the dissociation constant Kd is 9.09 µM.

Molecule `O=C(C1CCCN1C(=O)c1cccc(-c2cn3ccccc3n2)c1)N1CC2CN(c3ccc([N+](=O)[O-])cc3)CC2C1` [US20240101552, Compound L-39] showed a Kd of 6.33 µM.

Regarding `O=C(c1cccc([N+](=O)[O-])c1)N1CCC2(CC1)CCN(C(=O)c1cccc(-c3nc4ccccc4[nH]3)n1)CC2` [US20240101552, Compound L-40], the Kd was determined as 3.21 µM.

In the case of `O=C(c1cccc([N+](=O)[O-])c1)N1CC2CN(C(=O)c3cccc(-c4nc5ccccc5[nH]4)n3)CC2C1` [US20240101552, Compound L-41], the Kd came out at 27.6 µM.

`O=C(c1cccc(-c2cn3ccccc3n2)c1)N1CC2CN(C(=O)c3ccnc(Nc4ccccc4)n3)CC2C1` [US20240101552, Compound L-43] displayed a Kd of 49.2 µM.

On to `O=C(c1cccc(Nc2ccccc2)n1)N1CCC2(CC1)CCN(C(=O)c1cccc(-c3nc4ccccc4[nH]3)n1)CC2` [US20240101552, Compound L-45], for which the affinity, expressed as Kd, was 8.31 µM.

`O=C(NC1CCN(C(=O)c2cccc(-c3nc4ccccc4[nH]3)n2)CC1)c1cccc(Nc2ccccc2)n1` [US20240101552, Compound L-47] showed a Kd of 13.3 µM.

In the case of `O=C(c1ccnc(Nc2ccccn2)c1)N1CC2CN(C(=O)c3cccc(-c4nc5ccccc5[nH]4)n3)CC2C1` [US20240101552, Compound L-53], the Kd turned out to be 36 µM.

In turn, `O=C(c1cccc(-c2cn3ccccc3n2)c1)N1CC2CN(C(=O)c3cccc(-c4nc5ccccc5[nH]4)n3)CC2C1` [US20240101552, Compound L-55] registered a Kd of 16.8 µM.

With `O=C(c1cccc(Nc2ccccc2)n1)N1CCC2(CCN(C(=O)c3cccc(-c4nc5ccccc5[nH]4)n3)CC2)C1` [US20240101552, Compound L-61], binding was characterised by a dissociation constant (Kd) of 23.2 µM.

Turning to `O=C(N[C@H]1[C@@H]2CN(C(=O)c3cccc(-c4cn5ccccc5n4)c3)C[C@@H]21)c1cccc(-c2cn3ccccc3n2)c1` [US20240101552, Compound L-89], the Kd was 2.53 µM.

With `O=C(N[C@H]1[C@@H]2CN(C(=O)c3cccc(Nc4ccccc4)n3)C[C@@H]21)c1cccc(-c2cn3ccccc3n2)c1` [US20240101552, Compound L-90], the Kd came to 9.5 µM.

Molecule `O=C(c1ccnc(Nc2ccccc2)n1)N1CCC2(CC1)CCN(C(=O)c1ccnc(Nc3ccccn3)n1)CC2` [US20240101552, Compound L-98] yielded a Kd of 12.2 µM. This Kd and that of the molecule before are within 1.5-fold of each other.

In turn, `O=C(NC1CCN(C(=O)c2ccnc(Nc3ccccc3)n2)CC1)c1ccnc(Nc2ccccn2)n1` [US20240101552, Compound L-99] had a Kd of 5.41 µM. Compared with the last molecule, the Kd is about 2.3-fold lower.

Consider `O=C(c1cccc(Nc2ccccc2)n1)N1CC2CN(C(=O)c3ccnc(Nc4ccccc4)n3)CC2C1` [US20240101552, Compound L-102], for which the Kd came to 29.5 µM.

`O=C(N[C@H]1[C@@H]2CN(C(=O)c3cccc(Nc4ccccc4)n3)C[C@@H]21)c1ccnc(Nc2ccccc2)n1` [US20240101552, Compound L-103] came in with a Kd of 24.1 µM.

In turn, `O=C(N[C@H]1[C@@H]2CN(C(=O)c3cccnc3Oc3ccccc3)C[C@@H]21)c1cccc(-c2cn3ccccc3n2)c1` [US20240101552, Compound L-105] registered a Kd of 17.5 µM. This Kd and that of the molecule before are within 1.5-fold of each other.

In turn, `O=C(N[C@H]1[C@@H]2CN(C(=O)c3n[nH]c4ccccc34)C[C@@H]21)c1cccc(-c2cn3ccccc3n2)c1` [US20240101552, Compound L-106] gave a Kd of 4.32 µM.

Molecule `O=C(NC1CCN(C(=O)c2cccc(Nc3ccccc3)n2)CC1)c1cccc(Nc2ccccc2)n1` [US20240101552, Compound L-114] came in with a Kd of 10.8 µM. Against the preceding molecule, the Kd is about 2.5-fold higher.

The molecule `O=C(Nc1cccc(-c2cn3ccccc3n2)c1)N1CCN(C(=O)c2cccc(-c3nc4ccccc4[nH]3)n2)CC1` [US20240101552, Compound L-118] registered a Kd of 8.73 µM.

A word on the Kd: it is the constant that tells how readily two partners part at equilibrium. Lower therefore signals higher affinity.
